Laboratory results from the kinase profiling compilation of Christmann-Franck et al. (2016).

Columns and labels:
Assay in all cases: KINOMEscan competition binding
Settings in all cases: compound 10.0 µM
[1] = target: ROCK2 (human) (UniProt O75116)
[2] = target: NEK1 (human) (UniProt Q96PY6)
[3] = target: PIK3CD (human) (UniProt O00329)
[4] = target: MAPK12 (human) (UniProt P53778)
[5] = target: DYRK1B (human) (UniProt Q9Y463)
[6] = target: MAPK15 (human) (UniProt Q8TD08)
[7] = target: EPHA3 (human) (UniProt P29320)
[8] = target: TNK2 (human) (UniProt Q07912)
[9] = target: RPS6KA1 KD1 (human) (UniProt Q15418)
[10] = target: MAPK14 (human) (UniProt Q16539)
[11] = target: OXSR1 (human) (UniProt O95747)
Sequence of OXSR1 (human) (O95747 whole entry, looked up): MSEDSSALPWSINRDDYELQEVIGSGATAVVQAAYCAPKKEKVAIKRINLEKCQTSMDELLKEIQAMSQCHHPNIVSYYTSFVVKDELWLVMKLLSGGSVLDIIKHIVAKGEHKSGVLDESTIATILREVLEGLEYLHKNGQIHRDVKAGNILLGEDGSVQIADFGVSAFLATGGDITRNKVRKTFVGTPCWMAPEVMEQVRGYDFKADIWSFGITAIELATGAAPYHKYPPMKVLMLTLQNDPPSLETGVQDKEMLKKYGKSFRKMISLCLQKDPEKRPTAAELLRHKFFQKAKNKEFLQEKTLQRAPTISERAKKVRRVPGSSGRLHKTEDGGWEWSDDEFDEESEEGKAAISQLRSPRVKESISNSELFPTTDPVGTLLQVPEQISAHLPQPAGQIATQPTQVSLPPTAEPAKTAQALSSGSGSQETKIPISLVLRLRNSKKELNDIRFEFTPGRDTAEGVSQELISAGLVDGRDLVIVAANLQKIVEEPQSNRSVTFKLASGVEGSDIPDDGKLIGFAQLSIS

[12] = target: FES (human) (UniProt P07332)
[13] = target: STK35 (human) (UniProt Q8TDR2)
Sequence of STK35 (human) (Q8TDR2 whole entry, looked up): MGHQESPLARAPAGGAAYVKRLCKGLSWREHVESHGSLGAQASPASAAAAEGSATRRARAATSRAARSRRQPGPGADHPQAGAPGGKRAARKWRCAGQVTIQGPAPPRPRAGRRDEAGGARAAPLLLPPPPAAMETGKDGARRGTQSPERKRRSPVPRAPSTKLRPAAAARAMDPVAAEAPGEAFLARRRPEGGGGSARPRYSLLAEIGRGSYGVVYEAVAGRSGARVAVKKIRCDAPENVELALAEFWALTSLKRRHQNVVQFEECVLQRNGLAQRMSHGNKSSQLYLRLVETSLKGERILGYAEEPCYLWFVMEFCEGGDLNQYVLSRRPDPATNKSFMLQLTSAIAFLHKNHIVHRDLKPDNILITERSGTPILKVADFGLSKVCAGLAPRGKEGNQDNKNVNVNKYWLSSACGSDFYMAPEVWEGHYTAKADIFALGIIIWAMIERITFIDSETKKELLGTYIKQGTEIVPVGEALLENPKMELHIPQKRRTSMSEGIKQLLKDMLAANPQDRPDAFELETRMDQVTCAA

[14] = target: WEE2 (human) (UniProt P0C1S8)
[15] = target: PIP5K1A (human) (UniProt Q99755)
[16] = target: MTOR (human) (UniProt P42345)
[17] = target: CDK15 (human) (UniProt Q96Q40)
[18] = target: LCK (human) (UniProt P06239)
[19] = target: PRKD1 (human) (UniProt Q15139)
[20] = target: JAK1 JH2 pseudokinase (human) (UniProt P23458)
[21] = target: MET (human) (UniProt P08581)
[22] = target: MAP3K9 (human) (UniProt P80192)
[23] = target: STK39 (human) (UniProt Q9UEW8)
[24] = target: AKT1 (human) (UniProt P31749)
Sequence of AKT1 (human) (P31749 whole entry, looked up): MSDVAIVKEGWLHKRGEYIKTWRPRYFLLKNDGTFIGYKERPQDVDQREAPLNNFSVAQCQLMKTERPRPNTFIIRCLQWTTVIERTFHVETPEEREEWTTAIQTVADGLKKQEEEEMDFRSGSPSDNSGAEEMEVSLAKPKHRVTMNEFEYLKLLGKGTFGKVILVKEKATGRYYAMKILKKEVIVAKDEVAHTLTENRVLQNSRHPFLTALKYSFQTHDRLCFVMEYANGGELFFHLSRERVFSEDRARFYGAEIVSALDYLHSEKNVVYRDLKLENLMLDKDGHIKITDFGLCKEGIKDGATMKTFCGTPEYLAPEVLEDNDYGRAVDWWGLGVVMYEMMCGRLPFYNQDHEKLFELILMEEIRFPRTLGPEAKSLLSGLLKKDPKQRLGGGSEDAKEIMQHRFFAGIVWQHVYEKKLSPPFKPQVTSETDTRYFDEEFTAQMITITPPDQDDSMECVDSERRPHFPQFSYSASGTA

[25] = system: KIT (human), P10721 [D816H]
[26] = target: PRKCI (human) (UniProt P41743)
[27] = target: ACVR1 (human) (UniProt Q04771)
[28] = target: MAPKAPK2 (human) (UniProt P49137)
[29] = target: PRKX (human) (UniProt P51817)
Sequence of PRKX (human) (P51817 whole entry, looked up): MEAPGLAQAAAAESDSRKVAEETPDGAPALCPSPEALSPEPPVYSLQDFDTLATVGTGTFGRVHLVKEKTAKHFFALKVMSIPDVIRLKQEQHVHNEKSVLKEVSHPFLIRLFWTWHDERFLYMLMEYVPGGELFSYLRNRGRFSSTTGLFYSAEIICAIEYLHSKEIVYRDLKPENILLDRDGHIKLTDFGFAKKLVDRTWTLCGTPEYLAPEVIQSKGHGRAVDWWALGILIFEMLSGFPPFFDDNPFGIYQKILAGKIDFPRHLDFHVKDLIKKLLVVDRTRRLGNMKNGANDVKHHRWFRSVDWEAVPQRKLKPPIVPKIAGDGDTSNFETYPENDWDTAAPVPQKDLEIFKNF

[30] = target: IRAK1 (human) (UniProt P51617)
[31] = target: MAPK13 (human) (UniProt O15264)
[32] = target: CDK17 (human) (UniProt Q00537)
[33] = target: ZAP70 (human) (UniProt P43403)
[34] = target: RPS6KA4 KD1 (human) (UniProt O75676)
[35] = target: JAK3 JH1 catalytic (human) (UniProt P52333)
[36] = target: SIK2 (human) (UniProt Q9H0K1)
[37] = target: MAP4K4 (human) (UniProt O95819)
[38] = target: CLK4 (human) (UniProt Q9HAZ1)
Sequence of CLK4 (human) (Q9HAZ1 whole entry, looked up): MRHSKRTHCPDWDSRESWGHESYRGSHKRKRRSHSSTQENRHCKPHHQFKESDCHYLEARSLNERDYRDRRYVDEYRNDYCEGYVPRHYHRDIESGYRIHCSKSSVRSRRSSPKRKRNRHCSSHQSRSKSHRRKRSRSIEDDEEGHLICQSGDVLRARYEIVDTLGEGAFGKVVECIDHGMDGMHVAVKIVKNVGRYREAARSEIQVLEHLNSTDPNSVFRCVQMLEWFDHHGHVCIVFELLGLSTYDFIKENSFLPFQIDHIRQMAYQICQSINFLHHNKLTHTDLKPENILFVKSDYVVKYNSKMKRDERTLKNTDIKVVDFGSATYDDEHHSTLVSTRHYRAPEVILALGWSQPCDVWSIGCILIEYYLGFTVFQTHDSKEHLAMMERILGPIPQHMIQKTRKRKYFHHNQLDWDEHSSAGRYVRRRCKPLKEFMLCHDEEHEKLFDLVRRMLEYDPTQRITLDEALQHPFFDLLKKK

[39] = target: CDK4 CCND1 (human) (UniProt P11802+P24385)
[40] = target: MAP2K6 (human) (UniProt P52564)
[41] = target: FRK (human) (UniProt P42685)

Sequence of NEK1 (human) (Q96PY6 whole entry, looked up): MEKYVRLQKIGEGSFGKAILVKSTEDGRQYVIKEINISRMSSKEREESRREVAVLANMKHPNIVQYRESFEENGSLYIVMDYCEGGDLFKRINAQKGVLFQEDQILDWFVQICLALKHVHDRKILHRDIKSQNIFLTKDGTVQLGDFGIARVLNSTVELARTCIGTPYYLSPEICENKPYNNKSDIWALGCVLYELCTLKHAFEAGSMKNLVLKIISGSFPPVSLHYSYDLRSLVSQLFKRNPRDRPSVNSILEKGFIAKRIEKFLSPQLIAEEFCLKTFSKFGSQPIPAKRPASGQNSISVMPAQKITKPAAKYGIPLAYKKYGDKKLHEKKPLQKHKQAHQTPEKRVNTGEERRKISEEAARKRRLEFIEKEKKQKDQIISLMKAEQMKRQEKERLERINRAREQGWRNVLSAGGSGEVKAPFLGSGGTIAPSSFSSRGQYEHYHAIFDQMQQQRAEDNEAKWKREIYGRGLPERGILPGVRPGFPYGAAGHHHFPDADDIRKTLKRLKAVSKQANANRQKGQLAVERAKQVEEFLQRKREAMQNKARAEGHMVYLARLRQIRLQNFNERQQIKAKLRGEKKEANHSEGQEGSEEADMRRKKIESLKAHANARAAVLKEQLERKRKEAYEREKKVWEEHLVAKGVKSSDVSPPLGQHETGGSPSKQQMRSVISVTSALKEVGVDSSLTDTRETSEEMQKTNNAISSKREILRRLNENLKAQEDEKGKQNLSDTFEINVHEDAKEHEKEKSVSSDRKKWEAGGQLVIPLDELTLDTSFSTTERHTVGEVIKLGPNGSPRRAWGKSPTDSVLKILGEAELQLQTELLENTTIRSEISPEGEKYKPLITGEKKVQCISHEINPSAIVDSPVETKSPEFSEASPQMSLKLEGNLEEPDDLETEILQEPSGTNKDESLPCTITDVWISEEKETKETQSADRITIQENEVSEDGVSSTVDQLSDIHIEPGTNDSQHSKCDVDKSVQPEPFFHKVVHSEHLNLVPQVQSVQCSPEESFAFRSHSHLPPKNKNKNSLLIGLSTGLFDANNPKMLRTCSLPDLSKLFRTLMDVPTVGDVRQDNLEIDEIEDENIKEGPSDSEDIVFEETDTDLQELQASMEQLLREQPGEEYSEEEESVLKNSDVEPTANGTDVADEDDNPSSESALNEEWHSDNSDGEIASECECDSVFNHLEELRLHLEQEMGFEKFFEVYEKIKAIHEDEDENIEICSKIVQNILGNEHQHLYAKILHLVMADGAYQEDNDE
Sequence of MAPK12 (human) (P53778 whole entry, looked up): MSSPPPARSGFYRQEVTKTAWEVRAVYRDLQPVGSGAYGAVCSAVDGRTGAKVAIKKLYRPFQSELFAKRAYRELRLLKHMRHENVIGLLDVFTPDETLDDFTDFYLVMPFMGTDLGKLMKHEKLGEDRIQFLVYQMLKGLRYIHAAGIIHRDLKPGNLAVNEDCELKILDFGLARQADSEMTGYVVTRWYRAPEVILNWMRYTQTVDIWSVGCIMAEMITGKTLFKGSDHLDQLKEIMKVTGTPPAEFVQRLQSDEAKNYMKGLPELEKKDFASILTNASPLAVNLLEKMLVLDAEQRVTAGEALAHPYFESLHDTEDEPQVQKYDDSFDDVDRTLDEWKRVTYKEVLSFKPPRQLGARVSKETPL
Sequence of PIK3CD (human) (O00329 whole entry, looked up): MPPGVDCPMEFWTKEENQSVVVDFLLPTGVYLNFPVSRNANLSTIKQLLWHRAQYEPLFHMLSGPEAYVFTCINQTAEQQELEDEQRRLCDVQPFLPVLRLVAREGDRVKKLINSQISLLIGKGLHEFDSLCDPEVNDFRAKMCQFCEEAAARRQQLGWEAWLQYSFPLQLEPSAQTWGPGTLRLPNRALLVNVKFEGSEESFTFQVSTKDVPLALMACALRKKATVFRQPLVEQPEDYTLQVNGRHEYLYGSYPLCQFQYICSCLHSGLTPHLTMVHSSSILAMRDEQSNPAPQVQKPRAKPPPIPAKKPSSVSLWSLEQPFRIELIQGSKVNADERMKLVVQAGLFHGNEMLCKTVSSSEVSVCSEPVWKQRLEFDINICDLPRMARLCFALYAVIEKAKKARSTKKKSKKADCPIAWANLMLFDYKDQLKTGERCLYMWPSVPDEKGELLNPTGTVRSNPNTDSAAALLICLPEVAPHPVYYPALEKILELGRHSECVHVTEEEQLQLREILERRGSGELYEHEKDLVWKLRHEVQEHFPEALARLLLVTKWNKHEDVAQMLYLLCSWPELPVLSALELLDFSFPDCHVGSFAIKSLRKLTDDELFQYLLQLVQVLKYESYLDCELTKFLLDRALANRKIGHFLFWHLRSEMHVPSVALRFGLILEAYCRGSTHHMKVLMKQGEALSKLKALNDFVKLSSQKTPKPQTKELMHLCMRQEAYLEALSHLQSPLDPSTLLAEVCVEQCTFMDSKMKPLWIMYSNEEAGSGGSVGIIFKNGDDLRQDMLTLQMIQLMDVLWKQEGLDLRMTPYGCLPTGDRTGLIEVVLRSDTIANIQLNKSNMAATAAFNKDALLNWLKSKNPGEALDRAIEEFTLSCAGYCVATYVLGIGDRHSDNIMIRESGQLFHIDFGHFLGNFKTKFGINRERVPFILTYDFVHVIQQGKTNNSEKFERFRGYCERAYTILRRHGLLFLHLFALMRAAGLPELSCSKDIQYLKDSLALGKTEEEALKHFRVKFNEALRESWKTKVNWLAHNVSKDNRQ

Structure (SMILES): COc1ccc(-c2ccc3c(N4CCOCC4)nc(N4C[C@@H](C)O[C@@H](C)C4)nc3n2)cc1CO
- kinase still bound, per cent of control [1]: 21%
- kinase still bound, per cent of control [2]: 100%
- kinase still bound, per cent of control [3]: 0.95%
- kinase still bound, per cent of control [4]: 100%
- kinase still bound, per cent of control [5]: 85%
- kinase still bound, per cent of control [6]: 96%
- kinase still bound, per cent of control [7]: 90%
- kinase still bound, per cent of control [8]: 100%
- kinase still bound, per cent of control [9]: 70%
- kinase still bound, per cent of control [10]: 99%
- kinase still bound, per cent of control [11]: 72%
- kinase still bound, per cent of control [12]: 99%
- kinase still bound, per cent of control [13]: 96%
- kinase still bound, per cent of control [14]: 100%
- kinase still bound, per cent of control [15]: 97%
- kinase still bound, per cent of control [16]: 0%
- per cent of control [17]: 95%
- kinase still bound, per cent of control [18]: 98%
- kinase still bound, per cent of control [19]: 91%
- kinase still bound, per cent of control [20]: 100%
- kinase still bound, per cent of control [21]: 88%
- kinase still bound, per cent of control [22]: 88%
- per cent of control [23]: 100%
- kinase still bound, per cent of control [24]: 88%
- kinase still bound, per cent of control [25]: 100%
- kinase still bound, per cent of control [26]: 79%
- kinase still bound, per cent of control [27]: 100%
- kinase still bound, per cent of control [28]: 92%
- kinase still bound, per cent of control [29]: 100%
- kinase still bound, per cent of control [30]: 100%
- kinase still bound, per cent of control [31]: 71%
- per cent of control [32]: 100%
- kinase still bound, per cent of control [33]: 83%
- kinase still bound, per cent of control [34]: 96%
- kinase still bound, per cent of control [35]: 100%
- kinase still bound, per cent of control [36]: 91%
- kinase still bound, per cent of control [37]: 88%
- kinase still bound, per cent of control [38]: 62%
- per cent of control [39]: 70%
- kinase still bound, per cent of control [40]: 83%
- kinase still bound, per cent of control [41]: 100%
